Results reported in PMC12579247, “Tanshinone IIA inhibits heat-induced growth of p53-mutant Huh-7 hepatocellular carcinoma by modulating osmotic homeostasis and glycolysis through targeting ALDH7A1” (Cell Death Discovery, 2025).

Target: T1, ALDH7A1 (Homo sapiens, UniProt P49419)
T1 construct: endogenous protein in heat-pretreated (44 °C) Huh-7 cells; CETSA on total protein extract, detected by Western blot
T1 sequence (P49419 27-539): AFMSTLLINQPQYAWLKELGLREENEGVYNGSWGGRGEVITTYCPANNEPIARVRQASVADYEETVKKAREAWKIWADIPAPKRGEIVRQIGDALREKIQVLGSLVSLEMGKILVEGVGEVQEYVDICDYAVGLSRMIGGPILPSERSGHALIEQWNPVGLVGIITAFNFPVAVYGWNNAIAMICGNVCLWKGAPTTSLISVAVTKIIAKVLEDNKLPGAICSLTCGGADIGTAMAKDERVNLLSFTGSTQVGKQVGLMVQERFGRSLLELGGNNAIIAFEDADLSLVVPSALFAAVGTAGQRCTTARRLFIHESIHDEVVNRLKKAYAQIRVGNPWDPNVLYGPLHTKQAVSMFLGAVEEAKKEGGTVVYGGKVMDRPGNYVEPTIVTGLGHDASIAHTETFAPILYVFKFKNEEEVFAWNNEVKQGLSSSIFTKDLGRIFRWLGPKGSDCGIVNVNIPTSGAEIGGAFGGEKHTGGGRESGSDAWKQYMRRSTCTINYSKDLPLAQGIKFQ
Assay: CETSA, Western blot
Type: cell-based
Conditions: 0, 4, 8 µM for 24 h in cells, extract then heated at 63 °C for 5 min; heat-pretreated Huh-7 cells

**Q.** Cc1coc2c1C(=O)C(=O)c1c-2ccc2c1CCCC2(C)C [Tan IIA] was tested. Which “CETSA, Western blot” value did it give?
**A.** CETSA results showed that the binding of Tan IIA to ALDH7A1 was concentration-dependent
